Experimental data taken from patent US11332485B2, “Penicillin-binding protein inhibitors” (priority 2017, dated 2022).
Where two headings read alike, the source gives them in different places.

Key:
S. aureus ATCC 29213 = test: Broth microdilution MIC assay; type: cell-based; details: Staphylococcus aureus
Method in brief: (§1)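 Two-fold serial dilutions tested per CLSI in cation-supplemented Mueller-Hinton broth against S. aureus ATCC 29213 and hyper-permeable E. coli 901C; inoculum 5×10^5 CFU/mL from 3-5 h log-phase culture. Incubated 16-20 h at 37° C; MIC read visually as lowest concentration with no growth.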

[1] = system: hyper-permeable E. coli 901C; test: Broth microdilution MIC assay; type: cell-based; details: Escherichia coli, read-out: E. coli 901C MIC
Method in brief: as §1

[2] = target: T1, PBP3 from Escherichia coli (Escherichia coli, UniProt P0AD68); test: Fluorescence polarization competition binding assay with Bocillin-FL
T1 construct: made in house
Source text: To determine the ability of boronic acid-based test PBP inhibitors to bind Penicillin Binding Proteins (PBPs), Bocillin-FL (fluorescently-labeled penicillin V; ThermoFisher Scientific) was used in a fluorescence polarization (FP) competition binding assay to assess boronic acid PBP inhibitor binding to PBP3 from Escherichia coli. PBP3 from Escherichia coli was cloned and purified as described previously (King, D. T, et al., ACS Infectious Diseases 2015, 1, 175-184). To establish assay conditions for competition binding, an enzyme titration/saturation binding experiment was performed. Bocillin-FL was prepared at […] in a buffer comprised of 50 mM Hepes (pH 8.0), 300 mM NaCl and 5% (v/v) glycerol. Saturation binding was performed by mixing […] of PBP3 ranging in concentrations from […] with 40 μl of the 0.2 μM Bocillin-FL solution, in individual wells of a black 384-well microplate. FP was measured immediately upon addition of PBP3 (Ex, Em), using a Cytation3 (BioTek) microplate reader and measured continuously for 60 minutes. […] The competition binding assay was validated using the beta-lactam ampicillin, with Bocillin-FL at a final concentration of 0.1 μM, PBP3 at a final concentration of 1.5 μM and concentrations of ampicillin from 0-1000 μM. PBP3 was incubated with ampicillin at different concentrations in a black 384-well microplate (Corning) for 30 minutes, then Bocillin-FL added and the FP immediately measured for 60 minutes. […] Binding assays for boronic acid PBP inhibitors were performed in an identical fashion. Representative results are shown in Table 3, where A represents a potency of >500 μM, B represents a potency between 30 μM and 500 μM inclusive, and C represents a potency of <30 μM. NT=Not Tested.

E. coli DH5α/pLBII = test: Broth microdilution MIC assay, empty vector control strain; type: cell-based; details: Escherichia coli, read-out: E. coli DH5α/pLBII Microbiological Activity (MIC)
Procedure: To determine the ability of test compounds to potentiate the inhibition of the growth of bacterial strains, classic cell based broth microdilution MIC assays were employed. MIC assays are performed according to CLSI methods except where otherwise noted (CLSI, 2011 and CLSI, 2009). The reference strain S. aureus ATCC 29213 and the hyper-permeable E. coli 901C were used to determine the ability of the PBP compounds to inhibit bacterial growth. Briefly, cryo-preserved bacterial cultures of clinical strains are streaked for isolation on appropriate agar medium, in this case Mueller Hinton II agar. Following incubation to allow formation of colonies these plates are sealed with parafilm and stored refrigerated for up to two weeks. For preparation of assay inocula and to ensure low variability, at least 5 colonies are picked from the agar plates with an inoculating loop and aseptically transferred to a culture tube containing 3 mL of Mueller-Hinton Broth (supplemented with divalent cations to required levels based on Manufacturers' certification). The broth culture is grown for 3-5 hours at 37° C. with shaking at 200 rpm. Meanwhile, 2-fold serial dilutions of test compounds are conducted in a 96 well plate with a final volume of 75 μL per well at 2-fold the final desired concentration. After the dilution plates are set up the growing cultures are then diluted in a cuvette containing MH II broth and the optical density is measured at 600 nm. Inocula are diluted such that 75 μL of this culture in Mueller-Hinton Broth results in a starting bacterial concentration of 5×10^5 CFU/mL when added to the dilution plates. The plates are incubated 16-20 hours at 37° C. The MIC is read visually as the lowest concentration well with no bacterial growth.
To determine if test compounds were affected by CTX-M15, the most abundant extended spectrum β-lactamase in clinical settings worldwide, the inhibition of the growth of an engineered strain of Escherichia coli harboring CTX-M15 was tested. This strain was constructed by cloning the gene encoding CTX-M15 into the NdeI and BamHI restriction endonuclease sites of plasmid pLBII, placing the gene(s) under the control of the Lac promoter. The constructed expression plasmid for CTX-M15 was used to transform competent E. coli DH5a cells to make the engineered strain, including an empty pLBII vector control strain. The classic cell based broth microdilution MIC assay was employed as described above with the addition of control antibiotics, known to be degraded by β-lactamases (Ceftazidime, piperacillin and piperacillin+tazobactam).

[3] = system: E. coli DH5α/pLBII-CTX-M15; test: Broth microdilution MIC assay, engineered strain producing CTX-M15; type: cell-based, Escherichia coli; details: Escherichia coli, read-out: E. coli DH5α/pLBII-CTX-M15 Microbiological Activity (MIC)
Method in brief: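 CLSI broth microdilution in cation-supplemented Mueller-Hinton broth, 2-fold compound dilutions, 5×10^5 CFU/mL inoculum, 16-20 h at 37° C, MIC read visually as lowest concentration without growth. E. coli DH5α carries CTX-M15 on pLBII under Lac promoter, or empty pLBII as control.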

[4] = ATCC29213, broth microdilution, 16-20 hours at 37° C., read-out: S. aureus 29213 MIC

T1 sequence (P0AD68 1-577): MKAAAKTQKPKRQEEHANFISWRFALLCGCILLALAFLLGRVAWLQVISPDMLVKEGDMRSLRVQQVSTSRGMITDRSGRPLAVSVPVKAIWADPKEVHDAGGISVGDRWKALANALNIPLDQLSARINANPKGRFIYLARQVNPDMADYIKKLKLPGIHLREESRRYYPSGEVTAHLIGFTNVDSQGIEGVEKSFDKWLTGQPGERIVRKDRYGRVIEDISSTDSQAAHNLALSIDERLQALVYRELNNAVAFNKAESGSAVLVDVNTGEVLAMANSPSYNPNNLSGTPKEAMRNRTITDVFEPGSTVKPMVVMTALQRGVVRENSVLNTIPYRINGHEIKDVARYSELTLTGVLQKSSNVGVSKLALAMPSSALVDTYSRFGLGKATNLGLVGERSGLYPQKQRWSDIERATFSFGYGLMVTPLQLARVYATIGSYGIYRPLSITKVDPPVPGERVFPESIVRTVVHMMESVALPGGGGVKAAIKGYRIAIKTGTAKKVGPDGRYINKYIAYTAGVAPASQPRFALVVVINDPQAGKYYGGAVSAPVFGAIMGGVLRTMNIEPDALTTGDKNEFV

Compound	MIC (S. aureus ATCC 29213; [4])	MIC [1]	EC50 [2]	MIC (E. coli DH5α/pLBII)	MIC [3]	MIC (S. aureus ATCC 29213; ATCC29213, read-out: S. aureus 29213 MIC)
CCN1CCN(C(=O)NC(C(=O)N[C@H]2Cc3cccc(C(=O)O)c3OB2O)c2csc(NCCN)n2)C(=O)C1=O (stereo partly drawn) [Example 63, (3R)-3-(2-(2-((2-aminoethyl)amino)thiazol-4-yl)-2-(4-ethyl-2,3-dioxopiperazine-1-carboxamido)acetamido)-2-hydroxy-3,4-dihydro-2H-benzo[e][1,2]oxaborinine-8-carboxylic acid]	64 to 128 µg/mL	< 64 µg/mL	30 to 500 µM	–	–	–
Nc1nc(C(NC(=O)C2CCCC(=O)N2)C(=O)N[C@H]2Cc3cccc(C(=O)O)c3OB2O)cs1 (stereo partly drawn) [Example 68, (3R)-3-(2-(2-aminothiazol-4-yl)-2-(6-oxopiperidine-2-carboxamido)acetamido)-2-hydroxy-3,4-dihydro-2H-benzo[e][1,2]oxaborinine-8-carboxylic acid]	> 128 µg/mL	< 64 µg/mL	–	128 to 256 µg/mL	128 to 256 µg/mL	–
Nc1nc(C(NC(=O)N2CCN(CC(F)F)C(=O)C2=O)C(=O)N[C@H]2Cc3cccc(C(=O)O)c3OB2O)cs1 (stereo partly drawn) [Example 69, (3R)-3-(2-(2-aminothiazol-4-yl)-2-(4-(2,2-difluoroethyl)-2,3-dioxopiperazine-1-carboxamido)acetamido)-2-hydroxy-3,4-dihydro-2H-benzo[e][1,2]oxaborinine-8-carboxylic acid]	64 to 128 µg/mL	< 64 µg/mL	–	8 to 16 µg/mL	8 to 16 µg/mL	–
CCN1CCN(C(=O)N[C@@H](C(=O)N[C@H]2Cc3cccc(C(=O)O)c3OB2O)[C@H](O)CO)C(=O)C1=O [Example 74, (R)-3-((2R,3S)-2-(4-ethyl-2,3-dioxopiperazine-1-carboxamido)-3,4-dihydroxybutanamido)-2-hydroxy-3,4-dihydro-2H-benzo[e][1,2]oxaborinine-8-carboxylic acid]	> 128 µg/mL	< 64 µg/mL	–	32 to 64 µg/mL	32 to 64 µg/mL	–
Nc1nc(C(NC(=O)N2CCCN(O)S2(=O)=O)C(=O)N[C@H]2Cc3cccc(C(=O)O)c3OB2O)cs1 (stereo partly drawn) [Example 77, (3R)-3-(2-(2-aminothiazol-4-yl)-2-(6-hydroxy-1,1-dioxido-1,2,6-thiadiazinane-2-carboxamido)acetamido)-2-hydroxy-3,4-dihydro-2H-benzo[e][1,2]oxaborinine-8-carboxylic acid]	–	< 64 µg/mL	–	32 to 64 µg/mL	32 to 64 µg/mL	> 128 µg/mL
CCN1CCN(C(=O)N[C@@H](C(=O)N[C@H]2Cc3cccc(C(=O)O)c3OB2O)C(C)(C)O)C(=O)C1=O [Example 86, (R)-3-((R)-2-(4-ethyl-2,3-dioxopiperazine-1-carboxamido)-3-hydroxy-3-methylbutanamido)-2-hydroxy-3,4-dihydro-2H-benzo[e][1,2]oxaborinine-8-carboxylic acid]	> 128 µg/mL	< 64 µg/mL	30 to 500 µM	–	32 to 64 µg/mL	–
CCN1CCN(C(=O)NCCN2CCN(C(=O)NC(C(=O)N[C@H]3Cc4cccc(C(=O)O)c4OB3O)c3csc(N)n3)C(=O)C2=O)C(=O)C1=O (stereo partly drawn) [Example 92, (3R)-3-(2-(2-aminothiazol-4-yl)-2-(4-(2-(4-ethyl-2,3-dioxopiperazine-1-carboxamido)ethyl)-2,3-dioxopiperazine-1-carboxamido)acetamido)-2-hydroxy-3,4-dihydro-2H-benzo[e][1,2]oxaborinine-8-carboxylic acid]	> 128 µg/mL	< 64 µg/mL	30 to 500 µM	–	128 to 256 µg/mL	–
CCCCCCN1CCN(C(=O)NC(C(=O)N[C@H]2Cc3cccc(C(=O)O)c3OB2O)c2csc(N)n2)C(=O)C1=O (stereo partly drawn) [Example 93, (3R)-3-(2-(2-aminothiazol-4-yl)-2-(4-hexyl-2,3-dioxopiperazine-1-carboxamido)acetamido)-2-hydroxy-3,4-dihydro-2H-benzo[e][1,2]oxaborinine-8-carboxylic acid]	64 to 128 µg/mL	< 64 µg/mL	< 30 µM	–	128 to 256 µg/mL	–
